Test results: US4676822A, “Fluid fertilizers containing thiophosphoryl triamide” (Tennessee Valley Authority, priority 1986, dated 1987)

Assay: Stability of TPTA in solid mixtures with urea (HPLC)
Assay type: physicochemical
Conditions: solid 90% urea-10% TPTA, P(H2O) 12.73 mm Hg
Method: Solid samples (0.25 g) of urea-TPTA mixtures (90 weight percent urea-10 weight precent TPTA) were weighed into a 10-mL beaker, carefully spread into an even layer in the bottom of the beaker, and heated in a forced draft oven at temperatures of 42°, 50°, and 60° C. Samples were contained in desiccators inside the oven, each desiccator conataining a sodium hydroxide solution to yield a partial pressure of water of 12.73 mm Hg at the temperature employed. After heating, the samples were analyzed by High Performance Liquid Chromatography (HPLC) to determine the percent of the original TPTA remaining.
The calculated decomposition rate for 25° C., which was determined from an Arrhenius plot of the 42°, 50°, and 60° C. data are also illustrated in FIG. 2, supra. From a perusal of FIG. 2 it is clearly evident that the shelf life of urea-TPTA mixtures is of extremely short duration.

NP(N)(N)=S [TPTA, thiophosphoryl triamide]
% of original TPTA remaining (42° C., heating time 0.00 hr): 100.00%
% of original TPTA remaining (42° C., heating time 2.00 hr): 94.78%
% of original TPTA remaining (42° C., heating time 4.00 hr): 83.48%
% of original TPTA remaining (42° C., heating time 5.00 hr): 79.80%
% of original TPTA remaining (42° C., heating time 7.00 hr): 60.03%
% of original TPTA remaining (42° C., heating time 9.0 hr): 53.44%
% of original TPTA remaining (42° C., heating time 9.75 hr): 42.06%
% of original TPTA remaining (42° C., heating time 14.25 hr): 30.69%
% of original TPTA remaining (42° C., heating time 16.00 hr): 8.69%
% of original TPTA remaining (42° C., heating time 18.00 hr): 5.11%
% of original TPTA remaining (50° C., heating time 0.00 hr): 100.00%
% of original TPTA remaining (50° C., heating time 1.01 hr): 97.17%
% of original TPTA remaining (50° C., heating time 2.00 hr): 93.80%
% of original TPTA remaining (50° C., heating time 3.00 hr): 85.92%
% of original TPTA remaining (50° C., heating time 4.00 hr): 71.31%
% of original TPTA remaining (50° C., heating time 5.00 hr): 53.40%
% of original TPTA remaining (50° C., heating time 6.00 hr): 34.26%
% of original TPTA remaining (50° C., heating time 7.00 hr): 23.40%
% of original TPTA remaining (50° C., heating time 8.00 hr): 10.56%
% of original TPTA remaining (60° C., heating time 0.00 hr): 100.00%
% of original TPTA remaining (60° C., heating time 1.00 hr): 94.07%
% of original TPTA remaining (60° C., heating time 2.00 hr): 71.98%
% of original TPTA remaining (60° C., heating time 3.00 hr): 32.26%
% of original TPTA remaining (60° C., heating time 4.00 hr): 3.46%
% of original TPTA remaining (60° C., heating time 5.00 hr): 0.00%
% of original TPTA remaining (60° C., heating time 6.00 hr): 0.00%
